*1 amine or outer side, *2 acyl side, *3 side chain or, on linkers, in order; H or OH if unused. Where a SMILES comes first, the peptide text is derived from it. [ ]: non-standard residue; d: D form. The star is where a group is joined. X8 = N=C(N)NCCC[C@@H](C(=O)[*:2])N(CC1CCN([*:3])CC1)[*:1]; Butyryl(4-indol-3-yl) = O=C(CCCc1c[nH]c2ccccc12)*; Acetyl(2-naphthyloxy) = O=C(COc1ccc2ccccc2c1)*; X10 = O=C(CNc1ccc(C(=O)*)cc1)c1ccc2ccccc2c1; Acetyl(2-naphthyl) = O=C(Cc1ccc2ccccc2c1)*; X4 = O=C(Cc1ccc(NCCc2ccc3ccccc3c2)cc1)*; 2Naphthoyl = O=C(c1ccc2ccccc2c1)*; X1 = O=C(Cc1ccc(N[*:1])cc1)[*:2]; 4Amb = NCc1ccc(C(=O)O)cc1; 4Abz = Nc1ccc(C(=O)O)cc1; Aoc = NCCCCCCCC(=O)O; Inp = O=C(O)C1CCNCC1
Biological target: T1, specific ANP receptor sites on BASM or BAE cells (Bos taurus, UniProt P10730)
T1 construct: specific receptor sites on BASM or BAE cells; endogenous in cells; host or cells: cultured BASM and BAE cells
T1 sequence (P10730 42-537): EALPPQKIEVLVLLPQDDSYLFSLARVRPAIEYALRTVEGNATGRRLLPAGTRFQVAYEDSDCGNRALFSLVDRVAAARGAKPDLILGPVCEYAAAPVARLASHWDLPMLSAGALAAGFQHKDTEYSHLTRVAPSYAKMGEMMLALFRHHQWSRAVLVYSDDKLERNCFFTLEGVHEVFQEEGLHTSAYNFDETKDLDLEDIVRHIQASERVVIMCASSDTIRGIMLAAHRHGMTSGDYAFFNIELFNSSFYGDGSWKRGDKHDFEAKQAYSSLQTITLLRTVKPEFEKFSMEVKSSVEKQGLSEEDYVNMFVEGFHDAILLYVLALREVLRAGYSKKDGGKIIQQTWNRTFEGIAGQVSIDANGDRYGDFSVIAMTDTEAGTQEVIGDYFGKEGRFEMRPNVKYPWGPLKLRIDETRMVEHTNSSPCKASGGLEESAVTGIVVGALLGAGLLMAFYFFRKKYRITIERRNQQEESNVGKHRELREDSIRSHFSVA
Assay: Competitive displacement receptor binding of (125I)-rANP(126-150) on cultured cells
Parameters: species or system bovine
Settings: concentration of unlabeled peptide displacing 50% of maximal binding of 0.5 nM (125I)-rANP(126-150); BASM or BAE cells
From the text: Analogous "competitive displacement" receptor binding assays are considered commonplace in the art for examining specific ligand-receptor interactions.
Assuming these ANP analogs act at one or more ANP receptor sites, then increased receptor affinity should reflect increased biological potency.

Ki(app) [nM]	SMILES
6.3	CC[C@H](C)[C@H](NC(=O)[C@H](CCCNC(=N)N)NC(=O)[C@H](CC(=O)O)NC(=O)[C@@H](NC(=O)[C@H](CCCNC(=N)N)NC(=O)Cc1ccc(NC(=O)COc2ccc3ccccc3c2)cc1)[C@@H](C)CC)C(N)=O [AP792] ({Acetyl(2-naphthyloxy)}-[X1]RIDRI-NH2)
76.8	CC[C@H](C)[C@H](NC(=O)[C@H](CCCNC(=N)N)NC(=O)[C@H](CC(=O)O)NC(=O)[C@@H](NC(=O)[C@H](CCCNC(=N)N)NC(=O)C1CCN(C(=O)COc2ccc3ccccc3c2)CC1)[C@@H](C)CC)C(N)=O [AP793] ({Acetyl(2-naphthyloxy)-Inp}-RIDRI-NH2)
13.1	CC[C@H](C)[C@H](NC(=O)[C@H](CCCNC(=N)N)NC(=O)[C@H](CC(=O)O)NC(=O)[C@@H](NC(=O)[C@H](CCCNC(=N)N)NC(=O)c1ccc(NCC(=O)c2ccc3ccccc3c2)cc1)[C@@H](C)CC)C(N)=O [AP794] (X10-RIDRI-NH2)
11.9	CC[C@H](C)[C@H](NC(=O)[C@H](CCCNC(=N)N)NC(=O)[C@H](CC(=O)O)NC(=O)[C@@H](NC(=O)[C@H](CCCNC(=N)N)NC(=O)c1ccc(CNC(=O)c2ccc3ccccc3c2)cc1)[C@@H](C)CC)C(N)=O [AP795] ({2Naphthoyl-4Amb}-RIDRI-NH2)
27.3	CC[C@H](C)[C@H](NC(=O)[C@H](CCCNC(=N)N)NC(=O)[C@H](CC(=O)O)NC(=O)[C@@H](NC(=O)[C@H](CCCNC(=N)N)NC(=O)Cc1ccc(NCCc2ccc3ccccc3c2)cc1)[C@@H](C)CC)C(N)=O [AP796] (X4-RIDRI-NH2)
3.95	CC[C@H](C)[C@H](NC(=O)[C@H](CCCNC(=N)N)NC(=O)[C@H](CC(=O)O)NC(=O)[C@@H](NC(=O)[C@H](CCCCN)NC(=O)Cc1ccc(NC(=O)COc2ccc3ccccc3c2)cc1)[C@@H](C)CC)C(N)=O [AP798] ({Acetyl(2-naphthyloxy)}-[X1]KIDRI-NH2)

Continued, molecule first:

SMILES	Ki(app) [nM]
CC[C@H](C)[C@H](NC(=O)[C@H](CCCNC(=N)N)NC(=O)[C@H](CC(=O)O)NC(=O)[C@@H](NC(=O)[C@H](CCCNC(=N)N)NC(=O)CNC(=O)CCCc1c[nH]c2ccccc12)[C@@H](C)CC)C(=O)NCC(=O)N[C@@H](C)C(N)=O [AP597, (3-IB)--G--R--I--D--R--I--G--A--NH2] ({Butyryl(4-indol-3-yl)}-GRIDRIGA-NH2)	9.3
CC[C@H](C)[C@H](NC(=O)[C@H](CCCNC(=N)N)NC(=O)[C@H](CC(=O)O)NC[C@@H](NC(=O)[C@H](CCCNC(=N)N)NC(=O)Cc1ccc(NC(=O)Cc2ccc3ccccc3c2)cc1)[C@@H](C)CC)C(N)=O [AP701]	60.3
CC[C@H](C)[C@H](NC(=O)[C@H](CCCNC(=N)N)NC(=O)[C@H](CC(=O)O)NC(=O)[C@@H](NC(=O)[C@H](CCCNC(=N)N)NCC1CCN(C(=O)Cc2ccc3ccccc3c2)CC1)[C@@H](C)CC)C(N)=O [AP704] (H-[X8](Acetyl(2-naphthyl))IDRI-NH2)	17.0
CC[C@H](C)[C@H](NC(=O)[C@H](CCCNC(=N)N)NC(=O)[C@H](CC(=O)O)NC(=O)[C@@H](NC(=O)[C@H](CCCNC(=N)N)NC(=O)CCCCCCCNC(=O)COc1ccc2ccccc2c1)[C@@H](C)CC)C(N)=O [AP789, (2-NOA)--NH--(CH2)7 --CO--R--I--D--R--I--NH2] ({Acetyl(2-naphthyloxy)-Aoc}-RIDRI-NH2)	380
CC[C@H](C)[C@H](NC(=O)[C@H](CCCNC(=N)N)NC(=O)[C@H](CC(=O)O)NC(=O)[C@@H](NC(=O)[C@H](CCCNC(=N)N)NC(=O)Cc1ccc(NC(=O)c2ccc3ccccc3c2)cc1)[C@@H](C)CC)C(N)=O [AP790] (2Naphthoyl-[X1]RIDRI-NH2)	5.2
CC[C@H](C)[C@H](NC(=O)[C@H](CCCNC(=N)N)NC(=O)[C@H](CC(=O)O)NC(=O)[C@@H](NC(=O)[C@H](CCCNC(=N)N)NC(=O)c1ccc(NC(=O)COc2ccc3ccccc3c2)cc1)[C@@H](C)CC)C(N)=O [AP791] ({Acetyl(2-naphthyloxy)-4Abz}-RIDRI-NH2)	31.1
